From patent US9439432B2, “Phenylisoxazoline-based compound having herbicidal activity and use thereof” (MOGHU RESEARCH CENTER LTD, priority 2011, dated 2016)

Assays:
Assay type in all cases: in vivo
Poa annua [1] = assay: Pre-emergence treatment, herbicidal efficacy on annual bluegrass; conditions: 4 weeks after spraying, scale 0 to 10
Description: (§1) A rectangular plastic pot having a surface area of 300 cm^2 was filled with sandy loam soil and mixed bed soil which were mixed at a ratio of 1:1, and then, barnyardrass (Echinochloa crusgalli), large crabgrass (Digitaria sanguinalis), blackgrass (Alopecurus myosuroides), and annual bluegrass (Poa annua), which are grass weeds, were seeded thereto. In a pot that was prepared as described above, seeds of corn, soybean, cotton, wheat, and rice were seeded. The pots were irrigated, and one day after, chemicals were sprayed thereto. The spraying was performed by using a track sprayer (R&D Sprayer, USA) equipped with a Teejet 8002 (Spraying Systems Co., USA) nozzle, and a spraying amount was adjusted at 300 L/ha. A spraying solution was prepared by dissolving test materials or references in acetone and adding the same amount of 0.2%(v/v) tween 20 aqueous solution thereto. Application rates were 500, 250, 125, and 62.5 g/ha. The pots were placed in a greenhouse in which during day, the temperature was maintained at a temperature of 25 to 30° C., and during night, the temperature was maintained at a temperature of 15 to 25° C., and the pots were periodically irrigated. Four weeks after the spraying the test materials or References, effects and phytotoxicity of the respective weeds and crops were evaluated in a scale of 0 to 10 (0: no effects, 10: complete death), and results thereof are shown in Table 4 below.

Digitaria sanguinalis [2] = assay: Pre-emergence treatment, herbicidal efficacy on large crabgrass; conditions: 4 weeks after spraying, scale 0 to 10
Description: as §1

Soybean [3] = assay: Post-emergence treatment, phytotoxicity to soybean; conditions: post-emergence (about 3 leaf stage), 1,000 g/ha, 4 weeks after spraying, scale 0 to 10 (0: no effects, 10: complete death)
Description: as §1
(§2) Pots containing crops and weeds were prepared in the same manner as in Example 7, and then, in the second week in which crops and weeds entered into about 3 leaf stage, the test materials and the references were sprayed thereto in the same manner as described above. The rates were 1,000, 500, 250, and 125 g/ha. Four weeks after the spraying of the test materials or the references, herbicidal efficacy and phytotoxicity to the respective weeds and crops were evaluated in a scale of 0 to 10 (0: no effects, 10: complete death).

Echinochloa crusgalli [4] = assay: Post-emergence treatment, herbicidal efficacy on barnyardgrass; conditions: 4 weeks after spraying, scale 0 to 10
Description: as §1, §2

Cotton [5] = assay: Pre-emergence treatment, phytotoxicity to cotton; conditions: 500 g/ha, 4 weeks after spraying, scale 0 to 10 (0: no effects, 10: complete death)
Description: as §1

Wheat [6] = assay: Pre-emergence treatment, phytotoxicity to wheat; conditions: 500 g/ha, 4 weeks after spraying, scale 0 to 10 (0: no effects, 10: complete death)
Description: as §1

Digitaria sanguinalis [7] = assay: Post-emergence treatment, herbicidal efficacy on large crabgrass; conditions: 4 weeks after spraying, scale 0 to 10
Description: as §1, §2

Rice [8] = assay: Pre-emergence treatment, phytotoxicity to rice; conditions: 500 g/ha, 4 weeks after spraying, scale 0 to 10 (0: no effects, 10: complete death)
Description: as §1

Echinochloa crusgalli [9] = assay: Pre-emergence treatment, herbicidal efficacy on barnyardgrass; conditions: 4 weeks after spraying
Description: as §1

Alopecurus myosuroides [10] = assay: Pre-emergence treatment, herbicidal efficacy on blackgrass; conditions: 4 weeks after spraying, scale 0 to 10
Description: as §1

Cotton [11] = assay: Post-emergence treatment, phytotoxicity to cotton; conditions: post-emergence (about 3 leaf stage), 1,000 g/ha, 4 weeks after spraying, scale 0 to 10 (0: no effects, 10: complete death)
Description: as §1, §2

Wheat [12] = assay: Post-emergence treatment, phytotoxicity to wheat; conditions: post-emergence (about 3 leaf stage), 1,000 g/ha, 4 weeks after spraying, scale 0 to 10 (0: no effects, 10: complete death)
Description: as §1, §2

Rice [13] = assay: Post-emergence treatment, phytotoxicity to rice; conditions: post-emergence (about 3 leaf stage), 1,000 g/ha, 4 weeks after spraying, scale 0 to 10 (0: no effects, 10: complete death)
Description: as §1, §2

Soybean [14] = assay: Pre-emergence treatment, phytotoxicity to soybean; conditions: 500 g/ha, 4 weeks after spraying, scale 0 to 10 (0: no effects, 10: complete death)
Description: as §1

Poa annua [15] = assay: Post-emergence treatment, herbicidal efficacy on annual bluegrass; conditions: 4 weeks after spraying, scale 0 to 10
Description: as §1, §2

Corn [16] = assay: Post-emergence treatment, phytotoxicity to corn; conditions: post-emergence (about 3 leaf stage), 1,000 g/ha, 4 weeks after spraying, scale 0 to 10 (0: no effects, 10: complete death)
Description: as §1, §2

Corn [17] = assay: Pre-emergence treatment, phytotoxicity to corn; conditions: 500 g/ha, 4 weeks after spraying, scale 0 to 10 (0: no effects, 10: complete death)
Description: as §1

Alopecurus myosuroides [18] = assay: Post-emergence treatment, herbicidal efficacy on blackgrass; conditions: 4 weeks after spraying, scale 0 to 10
Description: as §1, §2

[19] = 500 g/ha, scale 0 to 10 (0: no effects, 10: complete death)

CC1(COCc2c(F)cccc2Cl)CC(c2ccccc2)=NO1 (stereo not drawn) [Reference H]
4: Herbicidal efficacy, Echinochloa crusgalli (Echinochloa crusgalli [4]; post-emergence, 1,000 g/ha) | Herbicidal efficacy, Poa annua (Poa annua [15]; post-emergence, 1,000 g/ha)
1: Herbicidal efficacy, Digitaria sanguinalis (Digitaria sanguinalis [7]; post-emergence, 500 g/ha)
10: Herbicidal efficacy, Digitaria sanguinalis (Digitaria sanguinalis [2]; 500 g/ha)
8: Herbicidal efficacy, Poa annua (Poa annua [1]; 500 g/ha)
9: Herbicidal efficacy, Echinochloa crusgalli (Echinochloa crusgalli [9]; [19]) | Herbicidal efficacy, Alopecurus myosuroides (Alopecurus myosuroides [10]; 500 g/ha)
2: Herbicidal efficacy, Poa annua (Poa annua [1]; 250 g/ha) | Herbicidal efficacy, Digitaria sanguinalis (Digitaria sanguinalis [2]; 250 g/ha) | Herbicidal efficacy, Echinochloa crusgalli (Echinochloa crusgalli [9]; 250 g/ha, scale 0 to 10) | Herbicidal efficacy, Alopecurus myosuroides (Alopecurus myosuroides [10]; 250 g/ha) | Herbicidal efficacy, Poa annua (Poa annua [15]; post-emergence, 500 g/ha) | Phytotoxicity, Corn (Corn [17])
0: Herbicidal efficacy, Poa annua (Poa annua [1]; 62.5 g/ha) | Herbicidal efficacy, Poa annua (Poa annua [1]; 125 g/ha) | Herbicidal efficacy, Digitaria sanguinalis (Digitaria sanguinalis [2]; 62.5 g/ha) | Herbicidal efficacy, Digitaria sanguinalis (Digitaria sanguinalis [2]; 125 g/ha) | Phytotoxicity, Soybean (Soybean [3]) | Herbicidal efficacy, Echinochloa crusgalli (Echinochloa crusgalli [4]; post-emergence, 125 g/ha) | Herbicidal efficacy, Echinochloa crusgalli (Echinochloa crusgalli [4]; post-emergence, 250 g/ha) | Herbicidal efficacy, Echinochloa crusgalli (Echinochloa crusgalli [4]; post-emergence, 500 g/ha) | Phytotoxicity, Cotton (Cotton [5]) | Phytotoxicity, Wheat (Wheat [6]) | Herbicidal efficacy, Digitaria sanguinalis (Digitaria sanguinalis [7]; post-emergence, 125 g/ha) | Herbicidal efficacy, Digitaria sanguinalis (Digitaria sanguinalis [7]; post-emergence, 250 g/ha) | Phytotoxicity, Rice (Rice [8]) | Herbicidal efficacy, Echinochloa crusgalli (Echinochloa crusgalli [9]; 62.5 g/ha, scale 0 to 10) | Herbicidal efficacy, Echinochloa crusgalli (Echinochloa crusgalli [9]; 125 g/ha, scale 0 to 10) | Herbicidal efficacy, Alopecurus myosuroides (Alopecurus myosuroides [10]; 62.5 g/ha) | Herbicidal efficacy, Alopecurus myosuroides (Alopecurus myosuroides [10]; 125 g/ha) | Phytotoxicity, Cotton (Cotton [11]) | Phytotoxicity, Wheat (Wheat [12]) | Phytotoxicity, Rice (Rice [13]) | Phytotoxicity, Soybean (Soybean [14]) | Herbicidal efficacy, Poa annua (Poa annua [15]; post-emergence, 125 g/ha) | Herbicidal efficacy, Poa annua (Poa annua [15]; post-emergence, 250 g/ha) | Phytotoxicity, Corn (Corn [16]) | Herbicidal efficacy, Alopecurus myosuroides (Alopecurus myosuroides [18]; post-emergence, 125 g/ha) | Herbicidal efficacy, Alopecurus myosuroides (Alopecurus myosuroides [18]; post-emergence, 250 g/ha) | Herbicidal efficacy, Alopecurus myosuroides (Alopecurus myosuroides [18]; post-emergence, 500 g/ha) | Herbicidal efficacy, Alopecurus myosuroides (Alopecurus myosuroides [18]; post-emergence, 1,000 g/ha)
5: Herbicidal efficacy, Digitaria sanguinalis (Digitaria sanguinalis [7]; post-emergence, 1,000 g/ha)

CC1(COCc2c(F)cccc2F)CC(c2ccccc2Br)=NO1 (stereo not drawn) [Compound 3, 3-(2-bromophenyl)-5-((2,6-difluorobenzyloxy)methyl)-5-methyl-4,5-dihydroisoxazole]
2: Phytotoxicity, Corn (Corn [17])
8: Herbicidal efficacy, Poa annua (Poa annua [1]; 250 g/ha)
7: Herbicidal efficacy, Poa annua (Poa annua [1]; 125 g/ha) | Herbicidal efficacy, Alopecurus myosuroides (Alopecurus myosuroides [10]; 500 g/ha)
4: Herbicidal efficacy, Poa annua (Poa annua [1]; 62.5 g/ha) | Herbicidal efficacy, Alopecurus myosuroides (Alopecurus myosuroides [10]; 62.5 g/ha) | Herbicidal efficacy, Alopecurus myosuroides (Alopecurus myosuroides [10]; 125 g/ha)
5: Herbicidal efficacy, Alopecurus myosuroides (Alopecurus myosuroides [10]; 250 g/ha)
10: Herbicidal efficacy, Poa annua (Poa annua [1]; 500 g/ha) | Herbicidal efficacy, Digitaria sanguinalis (Digitaria sanguinalis [2]; 62.5 g/ha) | Herbicidal efficacy, Digitaria sanguinalis (Digitaria sanguinalis [2]; 125 g/ha) | Herbicidal efficacy, Digitaria sanguinalis (Digitaria sanguinalis [2]; 250 g/ha) | Herbicidal efficacy, Digitaria sanguinalis (Digitaria sanguinalis [2]; 500 g/ha) | Herbicidal efficacy, Echinochloa crusgalli (Echinochloa crusgalli [9]; 62.5 g/ha, scale 0 to 10) | Herbicidal efficacy, Echinochloa crusgalli (Echinochloa crusgalli [9]; 125 g/ha, scale 0 to 10) | Herbicidal efficacy, Echinochloa crusgalli (Echinochloa crusgalli [9]; 250 g/ha, scale 0 to 10) | Herbicidal efficacy, Echinochloa crusgalli (Echinochloa crusgalli [9]; [19])
0: Phytotoxicity, Cotton (Cotton [5]) | Phytotoxicity, Wheat (Wheat [6]) | Phytotoxicity, Rice (Rice [8]) | Phytotoxicity, Soybean (Soybean [14])
